Experimental data published in patent US20180221487A1, “NOVEL PROTEIN TRANSFECTION COMPOSITIONS AND USES THEREOF” (Chang Gung Memorial Hospital, Linkou, priority 2017, published 2018).
“Also recorded” adds a separate entry of the source.

How the values were obtained:
[1] = tested on: human ovarian cancer cells; assay: HEPES-mediated protein transfection pathway with endocytic inhibitors; format: cell-based; details: pretreatment 30 min: 0.2-0.4 M sucrose, 5 μg/ml filipin or 0.0125-0.25 mM amiloride; 20 mM HEPES; after 4 hours and 24 hours
Method: Immunofluorescent staining procedure: After protein transfection is completed, the cells in the culture dish were washed three times with phosphate buffered saline (PBS) and fixed with 4% paraformaldehyde for 20 min. The cells were washed again with PBS, perforated with 0.1% Triton X-100 for 5 min, and blocked with 10% BSA for 30 min. For Alexa Fluor 488 anti-mouse IgGs, cells were stained with DAPI for 10 min. For B23, histone 1 or GAPDH antibody transfection, cells were stained with Alexa Fluor 488 or 546 anti-mouse IgG antibodies for 30 min and then stained with DAPI. For […]1 proteins or Flag-Rev peptides transfection, cells were stained with anti-v5 or anti-flag antibodies, respectively, and then stained with Alexa Fluor 488 anti-mouse IgG and DAPI. All images were detected by confocal microscopes (Leica, Wetzlar, Germany). The fluorescent signals were analyzed and quantified by Q-Win software (Leica, Wetzlar, Germany). An in vitro evaluation of HEPES-mediated protein transfection pathway was performed using the following endocytic inhibitors: sucrose (a clathrin-mediated endocytic inhibitor), filipin (a caveolae-mediated endocytic inhibitor) and amiloride (a macropinocytic inhibitor). Human ovarian cancer cells were pretreated with Opti-MEM (the control group), 0.2-0.4 M sucrose, 5 μg/ml filipin or 0.0125-0.25 mM amiloride for 30 min, followed by the transfection of Alexa Fluor 488 anti-mouse IgG antibodies using 20 mM HEPES buffer according to the steps in Example 1. The IgG antibody transfection efficiency was assessed by confocal fluorescent microscopy. […] The fluorescent signals of IgG were quantified by Q-Win software, expressed as a relative ratio in FIGS. 12C and 12D (error bars indicate s.e.m. (n=3) and asterisk denotes significant difference, P<0.001). […] The HEPES mediated protein transfection is induced by at least one of the following pathways: clathrin-mediated or caveolae-mediated endocytosis, or macropinocytosis.

colon cancer = assay: Alexa Fluor 488 anti-mouse IgG transfection, immunofluorescent staining; format: cell-based; details: HEPES buffer 20 mM-40 mM
Method: (§1) Immunofluorescent staining procedure: After protein transfection is completed, the cells in the culture dish were washed three times with phosphate buffered saline (PBS) and fixed with 4% paraformaldehyde for 20 min. The cells were washed again with PBS, perforated with 0.1% Triton X-100 for 5 min, and blocked with 10% BSA for 30 min. For Alexa Fluor 488 anti-mouse IgGs, cells were stained with DAPI for 10 min. For B23, histone 1 or GAPDH antibody transfection, cells were stained with Alexa Fluor 488 or 546 anti-mouse IgG antibodies for 30 min and then stained with DAPI. For […]1 proteins or Flag-Rev peptides transfection, cells were stained with anti-v5 or anti-flag antibodies, respectively, and then stained with Alexa Fluor 488 anti-mouse IgG and DAPI. All images were detected by confocal microscopes (Leica, Wetzlar, Germany). The fluorescent signals were analyzed and quantified by Q-Win software (Leica, Wetzlar, Germany). FIG. 1 schematically illustrates the protein transfection procedure. Briefly, the protein of interest and a protein transfection composition, such as HEPES buffer, were mixed and incubated for about 15 min to about 30 min to form a mixture (Panel A). Cells to be transfected were replaced in a minimal essential medium (Panel B). The mixture in Panel A was added to the cells in Panel B and incubated at 37° C. for about 4 to about 24 hours (Panel C). The protein transfection efficiency can be analyzed using immunofluorescent staining or flow cytometry (Panel D). Alexa Fluor 488 anti-mouse IgG or […]1 were incubated with Opti-MEM (the control group) or HEPES buffer (20 mM-40 mM) to transfect the following cancer cells according to the steps in Example 1: human cervical cancer cells, human breast cancer cells (MCF7, BRCA009 or BRCA011), human endometrial cancer cells, lung adenocarcinoma cells, human pancreatic cancer cells, hepatocellular carcinoma cells, scarcoma cells, renal cell carcinoma cells, lymphoma cells, nasopharyngeal carcinoma cells, brain tumor cells, colon cancer cells, and leukemic cells. The protein transfection efficiency was assessed by flow cytometry or confocal microscope.

non Hodgkin's lymphoma = assay: as above; format: cell-based; details: HEPES buffer 20 mM-40 mM
Method: as §1

nasopharyngeal carcinoma = assay: as above; format: cell-based; details: HEPES buffer 20 mM-40 mM
Method: as §1

scarcoma cells = assay: as above; format: cell-based; details: HEPES buffer 20 mM-40 mM
Method: as §1

leukemia cells = assay: as above; format: cell-based; details: HEPES buffer 20 mM-40 mM
Method: as §1

renal cell carcinoma = assay: as above; format: cell-based; details: HEPES buffer 20 mM-40 mM
Method: as §1

brain tumor = assay: as above; format: cell-based; details: HEPES buffer 20 mM-40 mM
Method: as §1

[2] = tested on: breast cancer cells (BRCA011); assay: as above; format: cell-based, human; details: after 24 hours of incubation
Method: (§2) Immunofluorescent staining procedure: After protein transfection is completed, the cells in the culture dish were washed three times with phosphate buffered saline (PBS) and fixed with 4% paraformaldehyde for 20 min. The cells were washed again with PBS, perforated with 0.1% Triton X-100 for 5 min, and blocked with 10% BSA for 30 min. For Alexa Fluor 488 anti-mouse IgGs, cells were stained with DAPI for 10 min. For B23, histone 1 or GAPDH antibody transfection, cells were stained with Alexa Fluor 488 or 546 anti-mouse IgG antibodies for 30 min and then stained with DAPI. For […]1 proteins or Flag-Rev peptides transfection, cells were stained with anti-v5 or anti-flag antibodies, respectively, and then stained with Alexa Fluor 488 anti-mouse IgG and DAPI. All images were detected by confocal microscopes (Leica, Wetzlar, Germany). The fluorescent signals were analyzed and quantified by Q-Win software (Leica, Wetzlar, Germany). FIG. 1 schematically illustrates the protein transfection procedure. Briefly, the protein of interest and a protein transfection composition, such as HEPES buffer, were mixed and incubated for about 15 min to about 30 min to form a mixture (Panel A). […] The protein transfection efficiency can be analyzed using immunofluorescent staining or flow cytometry (Panel D). […] The protein transfection efficiency was assessed by flow cytometry or confocal microscope.

[3] = tested on: breast cancer cells (BRCA009); assay: as above; format: cell-based, human; details: after 6 hours of incubation
Method: as §2

endometrial cancer cells = assay: Cytotoxicity of HEPES buffer concentrations (MTT and LDH assay); format: cell-based, human; details: Opti-MEM and HEPES buffer 0-200 mM, 24 h
Method: (§3) MTT and LDH assay: In MTT assay, the cells were incubated for 24 h and then centrifuged at 1500 rpm for 5 min. The supernatants were discarded and attached cells were analyzed by MTT reagent (Promega Corporation, Wisconsin, US). In LDH assay, the cells were incubated for […] and then centrifuged at 1500 rpm for 5 min. The supernatants were collected and analyzed by LDH reagent (Sigma, St. Louis, Mo., USA). The cell viability (MTT assay) and cytotoxicity (LDH assay) were assayed following the manufacturer's protocol. The MTT and LDH signals were detected by ELISA Reader (Tecan Systems, Inc., San Jose, Calif., USA).
(§4) The cytotoxicity of various HEPES buffer concentrations was evaluated. Human ovarian cancer cells and endometrial cancer cells were incubated in Opti-MEM and HEPES buffer (0-200 mM) for 24 h. Cell viability and cytotoxicity were analyzed by MTT and LDH assay, respectively.

[4] = tested on: human ovarian cancer cells; assay: as above; format: cell-based; details: Opti-MEM and HEPES buffer 0-200 mM, 24 h
Method: as §3, §4

[5] = tested on: human ovarian cancer cells (MDAH2774); assay: Protein transfection, immunofluorescent staining / confocal microscopy; format: cell-based
Method: Immunofluorescent staining procedure: After protein transfection is completed, the cells in the culture dish were washed three times with phosphate buffered saline (PBS) and fixed with 4% paraformaldehyde for 20 min. The cells were washed again with PBS, perforated with 0.1% Triton X-100 for 5 min, and blocked with 10% BSA for 30 min. For Alexa Fluor 488 anti-mouse IgGs, cells were stained with DAPI for 10 min. For B23, histone 1 or GAPDH antibody transfection, cells were stained with Alexa Fluor 488 or 546 anti-mouse IgG antibodies for 30 min and then stained with DAPI. For rhSTIP1 proteins or Flag-Rev peptides transfection, cells were stained with anti-v5 or anti-flag antibodies, respectively, and then stained with Alexa Fluor 488 anti-mouse IgG and DAPI. All images were detected by confocal microscopes (Leica, Wetzlar, Germany). The fluorescent signals were analyzed and quantified by Q-Win software (Leica, Wetzlar, Germany).
FIG. 1 schematically illustrates the protein transfection procedure. Briefly, the protein of interest and a protein transfection composition, such as HEPES buffer, were mixed and incubated for about 15 min to about 30 min to form a mixture (Panel A). Cells to be transfected were replaced in a minimal essential medium (Panel B). The mixture in Panel A was added to the cells in Panel B and incubated at 37° C. for about 4 to about 24 hours (Panel C). The protein transfection efficiency can be analyzed using immunofluorescent staining or flow cytometry (Panel D).
An in vitro evaluation of the optimal protein transfection condition was performed. According to the steps in FIG. 1. rhSTIP1 was incubated with HEPES buffers of different concentrations (5 or 20 mM) or Opti-MEM (control) at room temperature for about 15 minutes to form the protein mixtures to transfect human ovarian cancer cells. The mixtures were added to the cell culture dish comprising Opti-MEM and incubated at 37° C. for about 4 to about 24 hours.
Different amounts of Alexa Fluor® 488 anti-mouse IgG (0, 2, 4, 8, or 16 μg) were incubated with 20 mM HEPES buffer and mixed with ovarian (MDAH2774) cancer cells in Opti-MEM.
Alexa Fluor 488 anti-mouse IgG antibodies were mixed with 20 mM HEPES to form a mixture. […] Protein transfection efficiency was assessed using confocal fluorescent microscope.
The following proteins were incubated with Opti-MEM (control group) or 20-30 mM HEPES buffer to transfect ovarian cancer cells (MDAH2774 or MOSEC) or endometrial cancer cells: Alexa Fluor 488-conjugated, anti-mouse IgG antibody (about 150 kDa), anti-B23 antibody, anti-histone 1 antibody, anti-STIP1 antibody, rhSTIP1 protein (62.6 kDa), Flag-Rev peptide (<5 kDa) and FITC-Rev peptide (<5 kDa). […] Protein transfection efficiency was assessed by staining the transfected cancer cells with Alexa Fluor 488 or 594 anti-mouse IgG antibodies (for Alexa Fluor 488-conjugated anti-mouse IgG antibody, anti-B23 antibody, anti-histone 1 antibody, anti-STIP1 antibody), v5 antibody (for rhSTIP1), or anti-Flag antibody (for Flag-Rev peptide), and fluorescent signals were analyzed with confocal microscopy.
The protein transfection efficiency of HEPES was compared to other commercial reagents, such as PULsin™, ProteoJuice™, Pro-Ject™, Xfect™, and BioPORTER®. […] The transfected ovarian cancer cells were stained with Alexa Fluor 488 anti-mouse IgG antibodies and protein transfection efficiency was assessed by confocal fluorescent microscopy.

Structure (SMILES): OC[C@H]1O[C@@](CO)(O[C@H]2O[C@H](CO)[C@@H](O)[C@H](O)[C@H]2O)[C@@H](O)[C@@H]1O [sucrose]
- effect on HEPES-mediated IgG transfection [1]: reduced

Structure (SMILES): CCCCC[C@@H](O)[C@H]1C(=O)O[C@H](C)[C@@H](O)/C=C/C=C/C=C/C=C/C=C(\C)[C@@H](O)C[C@H](O)C[C@H](O)C[C@H](O)C[C@H](O)C[C@H](O)C[C@@H]1O [filipin]
- effect on HEPES-mediated IgG transfection [1]: reduced

Structure (SMILES): O=S(=O)(O)CCN1CCN(CCO)CC1 [HEPES buffer, 4-(2-hydroxyethyl)-1-piperazineethanesulfonic acid]
- Alexa Fluor 488 anti-mouse IgG signal using HEPES buffer compared to Opti-MEM (colon cancer): increased
- Alexa Fluor 488 anti-mouse IgG signal using HEPES buffer compared to Opti-MEM (non Hodgkin's lymphoma): increased
- Alexa Fluor 488 anti-mouse IgG signal using HEPES buffer compared to Opti-MEM (nasopharyngeal carcinoma): increased
- Alexa Fluor 488 anti-mouse IgG signal using HEPES buffer compared to Opti-MEM (scarcoma cells): increased
- Alexa Fluor 488 anti-mouse IgG signal using HEPES buffer compared to Opti-MEM (leukemia cells): increased
- Alexa Fluor 488 anti-mouse IgG signal using HEPES buffer compared to Opti-MEM (renal cell carcinoma): increased
- Alexa Fluor 488 anti-mouse IgG signal using HEPES buffer compared to Opti-MEM (brain tumor): increased
- Alexa Fluor 488 anti-mouse IgG signal using HEPES buffer compared to Opti-MEM [2]: increased
- Alexa Fluor 488 anti-mouse IgG signal using HEPES buffer compared to Opti-MEM [3]: increased
- HEPES buffer concentration at which cell growth was inhibited (endometrial cancer cells): 50 mM
- HEPES buffer concentration at which cell growth was inhibited [4]: 50 mM
- transfection of Alexa Fluor 488 anti-mouse IgG antibody in the cytoplasm compared to control group (Opti-MEM) ([5]; 20-30 mM HEPES buffer, confocal microscopy): increased
- IgG transfection efficiency compared to commercial protein transfection reagents ([5]; anti-GAPDH antibody, HEPES buffer 20 mM vs PULSin, ProteoJuice, Pro-Ject, Xfect, BioPorter): comparable
- protein transfection efficiency, second incubation time 24 hours compared to 4 hours ([5]; rhSTIP1, 5 mM HEPES buffer): improved
- protein transfection efficiency as a function of HEPES concentration ([5]; rhSTIP1 incubated with HEPES about 15 min, cells in Opti-MEM 4 to 24 hours): increases with a higher HEPES concentration; also recorded: does not increase further with HEPES concentration higher than 30 to 50 mM

Structure (SMILES): N=C(N)NC(=O)c1nc(Cl)c(N)nc1N [amiloride]
- effect on HEPES-mediated IgG transfection [1]: reduced
